Source: patent US11311568B2, “Therapeutic pharmaceutical composition for cancer including miRNA” (Purmx Therapeutics, Inc., priority 2017, dated 2022)

Tests used:
Assay in all cases: Screening in cancer cell strains, cell survival rate with PrestoBlue
Type in all cases: cell-based
[1] = tested on: large intestine cancer cell strain HCT116 (p53 deletion); conditions: Day 5 after transfection with RNAiMAX, compared with miR-34a-5p
Procedure: (§1) The 349 types of aging induction miRNA (mirVana; Ambion) obtained from screening were transfected into various cancer cell strains (large intestine cancer cell strain HCT116 (p53 wildtype and p53 deletion), pancreatic cancer cell strains BxPC-3 and CFPAC-1, and tongue cancer cell strain HSC-4) with an auto dispenser Bravo (Agilent).
(§2) Transfection was carried out with the following protocol.
(§3) 1: To 70 μL of serum free medium (SFM) was added 0.35 μL of RNAiMAX (Invitrogen).
(§4) 2: The solution from 1 was added to a 96-well plate (μ-plate; ibidi) with Bravo.
(§5) 3: To 2 was added 0.7 μL of miRNA (Stock Conc. 200 nM) with Bravo, and this was mixed by pipetting.
(§6) 4: This was incubated at room temperature for 20 minutes.
(§7) 5: A cell suspension diluted to 3.5×10^4 cells/mL was dispensed at 70 μL each with Bravo.
(§8) 6: This was incubated at 37° C. under 5% CO2 condition.
(§9) Setting the day of transfection as Day 0, on Day 5 the cell survival rate was evaluated with PrestoBlue (Invitrogen). The operating protocol is shown below.
(§10) 1. The medium was exchanged to a medium comprising PrestoBlue diluted 20-folds, and this was incubated at 37° C. for 1 hour. 2. The fluorescence value (Ex/Em=560 nm/590 nm) was measured with Enspire (Perkin Elmer).
(§11) 3. The cell survival rate was determined by setting the fluorescence value obtained from the well with only the reagent as the background.

[2] = tested on: large intestine cancer cell strain HCT116 (p53 wildtype); conditions: Day 5 after transfection with RNAiMAX, compared with miR-34a-5p
Procedure: as §1, §2, §3, §4, §5, §6, §7, §8, §9, §10, §11

[3] = tested on: pancreatic cancer cell strain BxPC-3; conditions: BxPC-3, Day 5 after transfection with RNAiMAX, compared with miR-34a-5p
Procedure: as §1, §2, §3, §4, §5, §6, §7, §8, §9, §10, §11

[4] = tested on: pancreatic cancer cell strain CFPAC-1; conditions: CFPAC-1, Day 5 after transfection with RNAiMAX, compared with miR-34a-5p
Procedure: as §1, §2, §3, §4, §5, §6, §7, §8, §9, §10, §11

[5] = tested on: tongue cancer cell strain HSC-4; conditions: HSC-4, Day 5 after transfection with RNAiMAX, compared with miR-34a-5p
Procedure: as §1, §2, §3, §4, §5, §6, §7, §8, §9, §10, §11

Row | Substance | suppression of cell proliferation (cell survival rate, PrestoBlue) [1] | suppression of cell proliferation (cell survival rate, PrestoBlue) [2] | suppression of cell proliferation (cell survival rate, PrestoBlue) [3] | suppression of cell proliferation (cell survival rate, PrestoBlue) [4] | suppression of cell proliferation (cell survival rate, PrestoBlue) [5]
1 | miR-137-3p: Mature-miRNA, UUAUUGCUUAAGAAUACGCGUAG (SEQ ID NO. 5) (listed as RNA, chemistry not given here; listed as Homo sapiens) | suppress cell proliferation more significantly than miR-34-5p | suppress cell proliferation more significantly than miR-34-5p | suppress cell proliferation more significantly than miR-34-5p | suppress cell proliferation more significantly than miR-34-5p | suppress cell proliferation more significantly than miR-34-5p
2 | miR-631-5p: Mature-miRNA, AGACCUGGCCCAGACCUCAGC (SEQ ID NO. 8) (listed as RNA, chemistry not given here; listed as Homo sapiens) | suppress cell proliferation more significantly than miR-34-5p | suppress cell proliferation more significantly than miR-34-5p | suppress cell proliferation more significantly than miR-34-5p | suppress cell proliferation more significantly than miR-34-5p | suppress cell proliferation more significantly than miR-34-5p
3 | miR-657-3p: Mature-miRNA, GGCAGGUUCUCACCCUCUCUAGG (SEQ ID NO. 11) (listed as RNA, chemistry not given here; listed as Homo sapiens) | suppress cell proliferation more significantly than miR-34-5p | suppress cell proliferation more significantly than miR-34-5p | suppress cell proliferation more significantly than miR-34-5p | suppress cell proliferation more significantly than miR-34-5p | suppress cell proliferation more significantly than miR-34-5p
